Here are results for two molecules from patent US20190084939A1, “ANALOGS OF FEXARAMINE AND METHODS OF MAKING AND USING” (Salk Institute for Biological Studies, priority 2014, published 2019).

Assay [1] deals with ob/ob mice. The assay can be described thus: fexaramine and deuterated analogs in ob/ob mice, 2 weeks. In kind it is in vivo. Particulars: 2 weeks at 50 mg/kg PO. The method, then: An in vivo study of fexaramine and selectively-deuterated fexaramine compounds (FIG. 29A) was performed. Briefly, ob/ob mice were treated daily with vehicle, Fex, or deuterated analogs (50 mg kg^−1) by oral (PO) gavage for 2 weeks. Subsequently, body weight, body temperature, fasting blood glucose and insulin levels, insulin secretion, and GLP1 section were measured, and glucose tolerance tests (GTTs) performed.

Assay [2] relates to FXR target gene expression in the liver. The assay can be described thus: liver gene expression by QPCR after 14 days oral FEX-D or SALK110. Conditions: 50 mg/kg PO 14 days. Format: in vivo, Mice. The method, then: Mice were treated daily with vehicle, FEX-D, or SALK110 (NSSK00110, 50 mg kg^−1) (see FIG. 29A) by oral (PO) gavage for 14 days, with tissues collected 1 hour after the final treatment. Gene expression changes in the liver were measured by QPCR.

Assay [3] has as its target T1, Human FXR full length (Homo sapiens, UniProt Q96RI1).
T1 construct: Human FXR full length and RXR full length was obtained from Ronald Evans' laboratory; expressed in transfected cells; host or cells: CV-1 cells
T1 sequence (Q96RI1 1-476 isoform Q96RI1-1): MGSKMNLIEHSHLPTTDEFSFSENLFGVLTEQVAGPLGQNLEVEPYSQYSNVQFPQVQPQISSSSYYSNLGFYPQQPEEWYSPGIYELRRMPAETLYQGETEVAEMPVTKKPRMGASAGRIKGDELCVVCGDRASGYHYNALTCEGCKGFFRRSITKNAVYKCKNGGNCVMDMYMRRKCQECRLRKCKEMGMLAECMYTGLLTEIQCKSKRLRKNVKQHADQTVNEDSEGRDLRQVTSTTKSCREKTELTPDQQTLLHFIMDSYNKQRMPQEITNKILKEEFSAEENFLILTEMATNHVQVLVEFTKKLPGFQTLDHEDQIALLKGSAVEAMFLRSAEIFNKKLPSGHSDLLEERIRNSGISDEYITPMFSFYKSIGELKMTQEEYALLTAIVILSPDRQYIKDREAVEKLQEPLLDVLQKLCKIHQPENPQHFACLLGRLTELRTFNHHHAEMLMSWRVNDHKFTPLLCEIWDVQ
T1 sequence (P19793 1-462 partner): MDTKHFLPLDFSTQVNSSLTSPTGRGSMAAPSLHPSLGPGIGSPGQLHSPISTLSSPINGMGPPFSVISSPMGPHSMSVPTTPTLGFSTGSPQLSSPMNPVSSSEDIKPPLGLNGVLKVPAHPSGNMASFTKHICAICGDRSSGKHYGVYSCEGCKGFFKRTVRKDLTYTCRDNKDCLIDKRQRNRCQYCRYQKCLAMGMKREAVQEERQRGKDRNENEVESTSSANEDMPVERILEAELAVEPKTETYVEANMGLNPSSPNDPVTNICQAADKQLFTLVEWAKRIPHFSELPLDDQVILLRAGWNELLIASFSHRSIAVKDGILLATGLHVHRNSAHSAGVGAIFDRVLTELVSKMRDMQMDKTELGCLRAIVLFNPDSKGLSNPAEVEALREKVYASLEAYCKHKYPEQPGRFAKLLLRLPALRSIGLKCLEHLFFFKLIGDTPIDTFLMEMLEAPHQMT
The assay can be described thus: FXR activity screen, luciferase reporter in transfected CV-1 cells. Format: cell-based. A digest of the protocol: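 CV-1 cells in charcoal-stripped serum, transfected with full-length human FXR, RXR, FXRE-luciferase reporter and β-Gal; 48 h expression, then 24 h compound (0.001–100 μM, quadruplicate, 1:1000 DMSO dilution). Luciferase normalized to β-galactosidase; fold induction vs untreated, efficacy relative to fexaramine, EC50 by non-linear regression.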
A general note: Reporter assays use an easily measured gene product as a stand-in for the process of interest.

For assay [4], the system named is human L cells. The assay can be described thus: oxygen consumption rate of intestinal L cells (Seahorse analyzer). Format: cell-based. Particulars: fexaramine 1 μM for 24 hours. The method, then:
FIG. 41 is a graph showing the effects of modulating FXR activity on the oxidative metabolism of intestinal L cells. L cells were treated with the FXR agonist fexaramine, the FXR antagonist Guggulsterone, or a combination of both, prior to measurement of their oxygen consumption rate (OCR) in a Seahorse analyzer.
To examine the effects of FXR in the secretion of GLP-1, the metabolic changes induced in human L cells was measured by treatment with the FXR agonist, fexaramine and an FXR antagonist guggulsterone. Treatment of L cells with fexaramine (1 μM for 24 hours) lead to an increase in the oxygen consumption rate (OCR), consistent with increased mitochondrial activity and consequently, an increased energetic state (FIG. 41). The reverse effect was seen after treatment with the FXR antagonist, guggulsterone, with lower OCR after drug treatment.

Read-outs that look alike come from different tables or passages of the source.

One may read the EC50 as the midpoint of the concentration-response curve. Regarding `[2H]C(c1ccc(-c2ccc(N(C)C)cc2)cc1)N(C(=O)C1CCCCC1)c1cccc(/C=C/C(=O)OC)c1` (stereo not shown) [NSSK00077, methyl (E)-3-(3-(N-((4′-(dimethylamino)-[1,1′-biphenyl]-4-yl)methyl-d)cyclohexanecarboxamido)phenyl)acrylate], the core body temperature entry in assay [1] was “more effective at increasing core body temperature than Fex”. The “fasting blood glucose levels” value in assay [1] is “significantly reduced”. Further, in assay [2], the “expression of FXR target genes SHP and BSEP in the liver” value is reported as “fail to alter”. The EC50 in assay [3] (first round, CV-1 cells, 24 hours, read-out: 1st RND EC50) was determined as 177 nM; in assay [3] (retest, read-out: EC50 (retested)), 98 nM; in assay [3] (second round, CV-1 cells, 24 hours, read-out: 2nd RND EC50), 150 nM.
In the case of `C/C=C1\C(=O)C[C@H]2[C@@H]3CCC4=CC(=O)CC[C@]4(C)[C@H]3CC[C@]12C` [guggulsterone], the “oxygen consumption rate (OCR)” value in assay [4] is recorded as “lower OCR”.
